Assay results as given in patent publication US12570684B2 (UNIVERSITY OF TENNESSEE RESEARCH FOUNDATION, priority 2020, dated 2026).

Tests used:
Capan-2 = test: MTT cytotoxicity assay; type: cell-based, human; conditions: 72 h
Protocol: (§1) Cell lines. The human primary PDAC cell lines PANC-1 (ATCC CRL 1469); Capan-2 (ATCC HTB-80) and metastatic PDAC cell lines Capan-1 (ATCC HTB-79), AsPC-1 (ATCC CRL-1682), L1210 (ATCC CCL-219), KB (ATCC CCL-17), HeLa, SiHa (ATCC HTB-35), HCT-116 (ATCC CCL-247), DLD-1 (ATCC CCL221), hTERT-HPNE (ATCC CRL-4023), Vero (ATCC CCL-81) were purchased from the ATCC. The cell lines were cultured and maintained in the media as recommended by the supplier. The cell lines were regularly tested for mycoplasma contamination and authenticated. In addition to ATCC cell lines, Dr. Glazer's lab generated patient-derived PDAC cell line, PD002. PD002 Cells were maintained and cultured in DMEM medium supplemented with 20% FBS and 100 IU/mL penicillin and incubated at 37° C. with 5% CO2.
(§2) MTT cytotoxicity assay. To study the effect of treatment with DPAGT1 inhibitors on the growth and proliferation of cells, a fixed number of cells (5×10^4 cells/well, 196 μL) were plated in a 96 well plate. Into each well 5 μL of drug concentration was added. After 72 h of incubation with drugs at 37° C., 5% CO2, 10 μL of MTT solution (5 mg/mL in PBS) was added and incubated another 3 h at 37° C., 5% CO2. The medium was removed, and DMSO (200 μL/well) was added. Viability was assessed on the basis of cellular conversion of MTT into a purple formazan product. The absorbance of the colored formazan product was measured at 570 nm by BioTek Synergy HT Spectrophotometer.

PANC-1 = test: MTT cytotoxicity assay; type: cell-based, human; conditions: 72 h
Protocol: as §1, §2

AsPC-1 = test: MTT cytotoxicity assay; type: cell-based, human; conditions: 72 h
Protocol: as §1, §2

E-cadherin = test: Immunofluorescent staining of E-cadherin; type: cell-based

Substance “(2S,3S,4S)-2-((1R)-2-Amino-1-((2S,5R)-5-(2,4-dioxo-3,4-dihydropyrimidin-1(2H)-yl)-4-hydroxy-3-methoxytetrahydrofuran-2-yl)-2-oxoethoxy)-3,4-dihydroxy-N-(4-(4-(4-(trifluoromethoxy)-phenyl)piperidin-1-yl)benzyl)-3,4-dihydro-2H-pyran-6-carboxamide [CPPB]” has an IC50 (Capan-2) of 30 µM, an IC50 (PANC-1) of 35 µM and an IC50 (AsPC-1) of 25 µM. The “E-cadherin expression level in PD002” value (E-cadherin; 0.05-0.2 μM) was “not noticeably changed”, the “E-cadherin expression level in Panc-1” value (E-cadherin; 0.05-0.2 μM) was “slightly increased” and the “E-cadherin expression levels of PD002, PANC-1, and HCT-116” value (E-cadherin; 0.05-2.0 μM) was “not changed significantly”.
